Where two headings read alike, the source gives them in different places.

Twelve compounds from US20240239790A1, “7-Morpholino-1,6-Naphthyridin-5-yl Derivatives and Pharmaceutical Compositions Thereof Useful as DNA-PK Inhibitor” (adMare Therapeutics Society, priority 2021, published 2024) can be followed below.

Test [1] concerns pDNA-PK induction in HCT116 tumour spheroids. The test is described as follows: Multicellular tumour spheroid + radiation, pDNA-PK (ser2056) inhibition, immunohistochemical endpoint, HCT116. The note with it: 20 Gy, 20% O2. The format is cell-based. On the procedure:
Multicellular tumour spheroids determination of compound inhibition of pDNA-PK induction following radiation. Tumour spheroids were grown to approximately 0.5 mm in diameter and irradiated with 20 Gy in combination with inhibitor test compounds to determine their potency. Inhibitor concentration for 50% reduction in pDNA-PK induction (IC50) was determined via immunohistochemical staining in spheroid cryosections taken 2 hours following radiation.
Spheroid+radiation pDNA-PK. Radiation: 20 Gy. Drug: serial dilution 5 or 10 μM down to 3.5 nM (11 wells). Spheroids: 3-6 spheroids per well (300-500 μm diameter). 20% 02 and 5% CO2. 96 well plate format.
Protocol: pre-incubate 1 hours with drug, irradiate with 20 Gy, post-incubate 2 hours with drug, freeze and cryosection ×3 replicates.
Endpoint: fluorescent immunostin pDNA-PK ser2056 and image on microscope.
Analysis: determine EC50 concentration that decreases pDNA-PK induction by 50% after radiation.
Multicellular tumour spheroids determination of compound inhibition of pDNA-PK induction following radiation. Tumour spheroids were grown to approximately 0.5 mm in diameter and irradiated with 20 Gy in combination with inhibitor test compounds to determine their potency. Inhibitor concentration for 50% reduction in pDNA-PK induction (IC50) was determined via immunohistochemical staining in spheroid cryosections taken 2 hours following radiation. For cell survival endpoint 8 Gy radiation was used and 3 hours following radiation spheroids were dissociated, counted and plated for colony forming endpoint.
Spheroid+radiation pDNA-PK. Radiation: 20 Gy. Drug: serial dilution 5 or 10 μM down to 3.5 nM (11 wells). Spheroids: 3-6 spheroids per well (300-500 μm diameter). 20% 02 and 5% CO2. 96 well plate format. Endpoint: fluorescent immunostain pDNA-PK ser2056 and image on microscope. Analysis: determine EC50 concentrations that decreases pDNA-PK induction by 50% after irradiation.
Multicellular tumour spheroids were used to determine potency of test compounds in a 3D tissue environment using inhibition of pDNA-PK induction following radiation or cell survival as the endpoint. For the pDNA-PK endpoint HCT116 or FaDU tumour spheroids were grown to approximately 0.5 mm in diameter and irradiated with 20 Gy in combination with inhibitor test compounds to determine their potency. Experiments were carried out in 96 well plates containing 0.7 mls of MEM media containing 10% FBS and 10 mM glucose under 20% O2 & 5% CO2 at 37° C. Following dilution of compounds 1:1000 from DMSO stocks, compounds were serially diluted from 10 μM down to 3.5 nM and 5-10 spheroids added. 96 well plates were constantly stirred to avoid spheroids settling during the course of the experiment. The inhibitor concentration for 50% reduction in pDNA-PK induction (EC50) was determined via immunohistochemical staining in spheroid cryosections taken 2 hours following radiation using anti-pDNA-PK (ser 2056) and fixed immediately in formalin following sectioning. For cell survival endpoint 8 Gy radiation was used and, 3 hours following radiation, spheroids were dissociated, counted and plated for colony forming endpoint. Data presented in the table compound potency as EC50 [μM].

Test [2] addresses T1, DNA-PK phosphorylation at Serine 2056 (Homo sapiens, UniProt P78527).
T1 construct: FaDu cells were purchased from ATCC; host or cells: FaDu
The test is described as follows: Cellular Assay for Inhibition of DNA-PK Phosphorylation at Serine 2056 in FaDu cells (sandwich ELISA, neocarzinostatin). The following applies: pSer2056 DNA-PK, neocarzinostatin 1 μg/mL, Table 1. The format is cell-based. The method in brief:
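FaDu cells pre-treated with compound (0.3% DMSO) for 1 h, then neocarzinostatin 1 μg/mL final added for 2 h to induce DSBs. Protein-normalised lysates read by sandwich ELISA for total and pSer2056 DNA-PK; % inhibition normalised between DMSO and NCS controls, IC50 from variable-slope log(inhibitor) fit.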
Background: An ELISA detects its analyte on a solid surface through an enzyme-linked reagent.

Test [3] has as its target T2, DNA-PK (Homo sapiens, UniProt P78527).
T2 construct: purchased Invitrogen PR9107A
The test is described as follows: DNA-PK Assay for Biochemical Enzymatic Inhibition (ADP Glo Kinase assay). The following applies: DNA-PK enzyme, Table 1. On the procedure: A biochemical assay was performed to identify IC50 values against DNA-PK activity in a two-step reaction with a kinase reaction followed by ADP Glo™ Kinase assay Kit (Promega V9102).
Three-fold serial dilutions of compounds in DMSO were prepared in kinase assay buffer (50 mM HEPES pH 7.5, 20 mM MgCl2, 100 mM KCl, 50 μM DTT, 10 μg/ml calf thymus DNA, 0.01% Tween 20). Kinase assay buffer was used to prepare compound treatments to 0.02% DMSO (dimethyl sulphoxide) content. DMSO controls were prepared to produce a maximum and minimum luminescence signal for normalization. Substrate (Anaspec, AS-60210-5) and ATP (Promega V9102) and ATP mix was prepared by dilution in kinase assay buffer for 434.4 μM and 64.4 μM final assay concentrations, respectively. Compounds and control were added to 25 ng DNA-PK enzyme (Invitrogen, PR9107A) diluted in kinase buffer in assay plate (Corning 267459) and incubated for 15 minutes at room temperature prior to addition of substrate and ATP mix.
Throughout the assay, each time a reagent was added to the microplate, it was centrifuged for 1 minute at 1300 rcf. All reagents were added, and incubations carried out at room temperature. The reaction was then incubated for 60 minutes. ADP-ATP standards at 0, 4, 10, 40, 80, and 100% ADP (prepared as specified in the ADP Glo™ Kinase assay kit) were also added to the microplate at a volume equal to the total kinase reaction. The ADP Glo™ Kinase Assay kit was then used to quantify DNA-PK activity: following the 60-minute incubation, a 1:1 volume of ADP Glo reagent was added to all wells, then following a further 45-minute incubation, a 1:1 volume of Kinase Detection Reagent was added to all wells. After this two-step assay, plates were incubated in a Synergy-Neo2 plate reader for 30 minutes with gentle shaking, followed by endpoint luminescent read Luminescence data was normalized by subtracting the background signal and expressing all background-adjusted values as a percentage of the average maximum signal. The data was then expressed as percent inhibition by subtracting from 100% (i.e. maximum luminescent signal will be 0% inhibition) and the resulting data plotted against ten concentration points on a logarithmic scale, using GraphPad Prism. Non-linear regression analysis was performed on each concentration response curve and the log [inhibitor] vs response—variable slope (four parameters) equation was selected to generate IC50 values.
A general note: In ADP-Glo the light output rises with the ADP produced.

[4] abbreviates: 2 hours following radiation, Example 9 Study 2, read-out: Spheroid Cell line: HCT116 Immunohistochemical endpoint pDNA-PK inhibition EC50.
Where [5] appears, read: Spheroid, Cell Line: HCT115 (so in the source), 2 hours following radiation, Example 7, read-out: EC50, Immunohistochemical endpoint, pDNA-PK inhibition.
[6] abbreviates: spheroids, Example 8, read-out: Cell line: HCT116 Immunohistochemical endpoint pDNA-PK inhibition EC50.
Setting [7] is: Homo sapiens, HCT-116, 2 hours following radiation, Example 9 Study 2, read-out: Spheroid Cell line: HCT116 Immunohistochemical endpoint pDNA-PK inhibition EC50.
Setting [8] is: Homo sapiens, HCT-116, Spheroid, Cell Line: HCT115 (so in the source), 2 hours following radiation, Example 7, read-out: EC50, Immunohistochemical endpoint, pDNA-PK inhibition.

Regarding “5-(((1s,4s)-4-(1H-imidazol-1-yl)cyclohexyl)oxy)-7-morpholino-N-propyl-1,6-naphthyridine-3-carboxamide [Compound 169]”, the EC50 in test [1] (setting [4]), in test [1] (setting [5]) and in test [1] (setting [6]) was 10000 to 100000 nM throughout. Besides, the IC50 (commonly the midpoint of a concentration-inhibition curve) in test [2] lay in the range of 1000 to 10000 nM; in test [3], 10 to 150 nM.

Take `N=C(N)N[C@H]1CC[C@@H](Oc2nc(N3CCOCC3)cc3ncccc23)CC1` [Compound 16, 1-((1s,4s)-4-((7-morpholino-1,6-naphthyridin-5-yl)oxy)cyclohexyl)guanidine]: the EC50 in test [1] (setting [4]), in test [1] (setting [5]) and in test [1] (setting [6]) was 10000 to 100000 nM in each case. The IC50 in test [2] lay within 1000 to 10000 nM; in test [3] it was 1 to 10 nM.

Regarding `O=C(O)COc1cnc(N[C@H]2CC[C@@H](Oc3nc(N4CCOCC4)cc4ncccc34)CC2)nc1` [Compound 59, 2-((2-(((1s,4s)-4-((7-Morpholino-1,6-naphthyridin-5-yl)oxy)cyclohexyl)amino)pyrimidin-5-yl)oxy)acetic acid], the EC50 in test [1] (setting [7]) and in test [1] (setting [8]) was 10000 to 100000 nM each time. Further, the results for the IC50 in test [2] and in test [3] were 10000 to 30000 nM and less than 0.5 nM, respectively.

On to `O=C(COc1cnc(N[C@H]2CC[C@@H](Oc3nc(N4CCOCC4)cc4ncccc34)CC2)nc1)N1CCSCC1` [Compound 73, 2-((2-(((1s,4s)-4-((7-Morpholino-1,6-naphthyridin-5-yl)oxy)cyclohexyl)amino)pyrimidin-5-yl)oxy)-1-thiomorpholinoethan-1-one], for which the EC50 in test [1] (setting [7]) and in test [1] (setting [8]) was 1000 to 10000 nM in each case. The IC50 in test [2] lay in the range of 100 to 1000 nM; in test [3] it was 0.5 to 1 nM.

For `O=C(COc1cnc(N[C@H]2CC[C@@H](Oc3nc(N4CCOCC4)cc4ncccc34)CC2)nc1)N1CCCC1` [Compound 74, 2-((2-(((1s,4s)-4-((7-Morpholino-1,6-naphthyridin-5-yl)oxy)cyclohexyl)amino)pyrimidin-5-yl)oxy)-1-(pyrrolidin-1-yl)ethan-1-one], the EC50 in test [1] (setting [7]) and in test [1] (setting [8]) was 1000 to 10000 nM each time. For the same compound, the IC50 in test [2] was in the range of 100 to 1000 nM; in test [3], 0.5 to 1 nM.

`O=C(COc1cnc(N[C@H]2CC[C@@H](Oc3nc(N4CCOCC4)cc4ncccc34)CC2)nc1)N1CC(O)C1` [Compound 77, 1-(3-Hydroxyazetidin-1-yl)-2-((2-(((1s,4s)-4-((7-morpholino-1,6-naphthyridin-5-yl)oxy)cyclohexyl)amino)pyrimidin-5-yl)oxy)ethan-1-one]: the concentration for a half-maximal effect (EC50) in test [1] (setting [7]) and in test [1] (setting [8]) was 500 to 1000 nM throughout. The results for the IC50 in test [2] and in test [3] were 100 to 1000 nM and less than 0.5 nM, respectively.

Take `c1cnc2cc(N3CCOCC3)nc(O[C@H]3CC[C@@H](Nc4ncc(OCc5ncco5)cn4)CC3)c2c1` [Compound 78, N-((1s,4s)-4-((7-Morpholino-1,6-naphthyridin-5-yl)oxy)cyclohexyl)-5-(oxazol-2-ylmethoxy)pyrimidin-2-amine]: the EC50 in test [1] (setting [7]) and in test [1] (setting [8]) was 1000 to 10000 nM throughout. Also, the results for the IC50 in test [2] and in test [3] were 100 to 1000 nM and 0.5 to 1 nM, respectively.

Turning to `Cn1ccnc1COc1cnc(N[C@H]2CC[C@@H](Oc3nc(N4CCOCC4)cc4ncccc34)CC2)nc1` [Compound 79, 5-((1-methyl-1H-imidazol-2-yl)methoxy)-N-((1s,4s)-4-((7-morpholino-1,6-naphthyridin-5-yl)oxy)cyclohexyl)pyrimidin-2-amine], the EC50 in test [1] (setting [7]) and in test [1] (setting [8]) was 1000 to 10000 nM in each case. Also, the IC50 fell in the range of 100 to 1000 nM in test [2] and 0.5 to 1 nM in test [3].

As to `CCOC(=O)c1cnc(NC2CCOCC2)nc1N[C@H]1CC[C@@H](Oc2nc(N3CCOCC3)cc3ncccc23)CC1` [Compound 93, Ethyl 4-(((1s,4s)-4-((7-morpholino-1,6-naphthyridin-5-yl)oxy)cyclohexyl)amino)-2-((tetrahydro-2H-pyran-4-yl)amino)pyrimidine-5-carboxylate], the EC50 in test [1] (setting [7]) and in test [1] (setting [8]) was 10000 to 100000 nM throughout. The IC50 lay within 1000 to 10000 nM in test [2] and 10 to 150 nM in test [3].

On to `CCOC(=O)c1cnc(N[C@H]2CC[C@@H](Oc3nc(N4CCOCC4)cc4ncccc34)CC2)nc1NC1CCOCC1` [Compound 94, Ethyl 2-(((1s,4s)-4-((7-morpholino-1,6-naphthyridin-5-yl)oxy)cyclohexyl)amino)-4-((tetrahydro-2H-pyran-4-yl)amino)pyrimidine-5-carboxylate], for which the EC50 in test [1] (setting [7]) and in test [1] (setting [8]) was 1000 to 10000 nM throughout. Further, the IC50 in test [2] fell in the range of 100 to 1000 nM; in test [3], 10 to 150 nM.

In the case of `CN(C)CCOc1cnc(C(=O)N[C@H]2CC[C@@H](Oc3nc(N4CCOCC4)cc4ncccc34)CC2)nc1` [Compound 126, 5-(2-(dimethylamino)ethoxy)-N-((1s,4s)-4-((7-morpholino-1,6-naphthyridin-5-yl)oxy)cyclohexyl)pyrimidine-2-carboxamide], the EC50 in test [1] (setting [7]) and in test [1] (setting [8]) was 10000 to 100000 nM each time. Moreover, the IC50 in test [2] lay within 1000 to 10000 nM; in test [3], 1 to 10 nM.

For `O=S(=O)(Nc1cnc2cc(N3CCOCC3)nc(O[C@H]3CC[C@@H](Nc4ncccn4)CC3)c2c1)C1CCCC1` [Compound 190, N-(7-morpholino-5-(((1s,4s)-4-(pyrimidin-2-ylamino)cyclohexyl)oxy)-1,6-naphthyridin-3-yl)cyclopentanesulfonamide], the EC50 in test [1] (setting [7]) and in test [1] (setting [8]) was 10000 to 100000 nM in each case. Moreover, in test [3], the IC50 lay within 10 to 150 nM.
